Source: US11912686B2 (Gilead Sciences, Inc., priority 2020, dated 2024)

Target: human LPAR1 (Homo sapiens (Human), UniProt Q92633)
Assay: LPAR1 intracellular calcium mobilization assay (antagonist mode, FLIPR)
Assay type: cell-based
Details: CHO-K1 EDG2 cells expressing human LPAR1, LPA 18:2 at EC80 (100 nM), test compound 0.5 nM to 10 μM

Sequence of human LPAR1 (Q92633 whole entry): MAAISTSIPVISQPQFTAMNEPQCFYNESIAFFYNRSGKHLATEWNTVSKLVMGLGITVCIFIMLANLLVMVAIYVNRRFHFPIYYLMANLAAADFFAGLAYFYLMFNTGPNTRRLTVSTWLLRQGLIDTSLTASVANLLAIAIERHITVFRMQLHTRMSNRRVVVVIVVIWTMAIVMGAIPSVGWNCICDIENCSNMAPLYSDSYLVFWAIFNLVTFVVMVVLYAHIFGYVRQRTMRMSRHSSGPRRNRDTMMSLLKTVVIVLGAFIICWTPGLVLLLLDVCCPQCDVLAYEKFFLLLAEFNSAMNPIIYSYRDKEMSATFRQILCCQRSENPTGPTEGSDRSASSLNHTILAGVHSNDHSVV

| Structure (SMILES) | EC50 [nM] |
| --- | --- |
| COC(=O)Nc1ccc(-c2nnn(C)c2NC(=O)O[C@H](C)c2cccnc2Cl)cc1 [Compound 7, (R)-1-(2-chloropyridin-3-yl)ethyl (4-(4-((methoxycarbonyl)amino)phenyl)-1-methyl-1H-1,2,3-triazol-5-yl)carbamate] | 315 |
| C[C@@H](OC(=O)Nc1c(-c2cnc(NC(=O)C3(C#N)CC3)cn2)nnn1C)c1cccnc1Cl [Compound 8, (R)-1-(2-chloropyridin-3-yl)ethyl (4-(5-(1-cyanocyclopropane-1-carboxamido)pyrazin-2-yl)-1-methyl-1H-1,2,3-triazol-5-yl)carbamate] | 154 |
| CC(=O)Nc1cnc(-c2nnn(C)c2NC(=O)O[C@H](C)c2cccnc2Cl)c(F)c1 [Compound 9, (R)-1-(2-chloropyridin-3-yl)ethyl (4-(5-acetamido-3-fluoropyridin-2-yl)-1-methyl-1H-1,2,3-triazol-5-yl)carbamate] | 2700 |
| CC(=O)Nc1cnc(-c2nnn(C)c2NC(=O)O[C@H](C)c2cccnc2Cl)cc1F [Compound 10, (R)-1-(2-chloropyridin-3-yl)ethyl (4-(5-acetamido-4-fluoropyridin-2-yl)-1-methyl-1H-1,2,3-triazol-5-yl)carbamate] | 1020 |
| C[C@@H](OC(=O)Nc1c(-c2ccc(NC(=O)OC(C)(C)C)cn2)nnn1C)c1cccnc1Cl [Compound 11, (R)-1-(2-chloropyridin-3-yl)ethyl (4-(5-((tert-butoxycarbonyl)amino)pyridin-2-yl)-1-methyl-1H-1,2,3-triazol-5-yl)carbamate] | 731 |
| CC(OC(=O)Nc1c(-c2ccc(NC(=O)C(F)(F)F)cn2)nnn1C)c1cc(Br)cnc1F (stereo not shown) [Compound 12, 1-(5-bromo-2-fluoropyridin-3-yl)ethyl (1-methyl-4-(5-(2,2,2-trifluoroacetamido)pyridin-2-yl)-1H-1,2,3-triazol-5-yl)carbamate] | 541 |
| CC(OC(=O)Nc1c(-c2ccc(NC(=O)C(F)(F)F)cn2)nnn1C)c1cc(Br)cnc1Cl (stereo not shown) [Compound 13, 1-(5-bromo-2-chloropyridin-3-yl)ethyl (1-methyl-4-(5-(2,2,2-trifluoroacetamido)pyridin-2-yl)-1H-1,2,3-triazol-5-yl)carbamate] | 148 |
| CC(=O)Nc1ccc(-c2nnn(C)c2NC(=O)O[C@H](C)c2cc(Cl)cnc2F)nc1 [Compound 14, (R)-1-(5-chloro-2-fluoropyridin-3-yl)ethyl (4-(5-acetamidopyridin-2-yl)-1-methyl-1H-1,2,3-triazol-5-yl)carbamate] | 1200 |
| CC(=O)Nc1ccc(-c2nnn(C)c2NC(=O)O[C@H](C)c2cc(F)cnc2Cl)nc1 [Compound 15, (R)-1-(2-chloro-5-fluoropyridin-3-yl)ethyl (4-(5-acetamidopyridin-2-yl)-1-methyl-1H-1,2,3-triazol-5-yl)carbamate] | 452 |
| C[C@@H](OC(=O)Nc1c(-c2ccc(NC=O)cn2)nnn1C)c1cccnc1Cl [Compound 16, (R)-1-(2-chloropyridin-3-yl)ethyl (4-(5-formamidopyridin-2-yl)-1-methyl-1H-1,2,3-triazol-5-yl)carbamate] | 2180 |
| COC(=O)Nc1ccc(-c2nnn(C)c2NC(=O)O[C@H](C)c2cccnc2Cl)nc1 [Compound 17, (R)-1-(2-chloropyridin-3-yl)ethyl (4-(5-((methoxycarbonyl)amino)pyridin-2-yl)-1-methyl-1H-1,2,3-triazol-5-yl)carbamate] | 29.3 |
| COC(=O)Nc1ccc(-c2nnn(C)c2NC(=O)O[C@H](CF)c2ccccc2)cc1 [Compound 18, (S)-2-fluoro-1-phenylethyl (4-(4-((methoxycarbonyl)amino)phenyl)-1-methyl-1H-1,2,3-triazol-5-yl)carbamate] | 1130 |
| COC(=O)Nc1ccc(-c2nnn(C)c2NC(=O)O[C@H](CF)c2cccc(F)c2)nc1 [Compound 19, (S)-2-fluoro-1-(3-fluorophenyl)ethyl (4-(5-((methoxycarbonyl)amino)pyridin-2-yl)-1-methyl-1H-1,2,3-triazol-5-yl)carbamate] | 276 |
